How the values were obtained:
[1] = Inhibition of EGFR Del ex19 mutant in human PC9 cells assessed as suppression of cell proliferation
[2] = Inhibition of EGFR L858R/T790M double mutant in human NCI-H1975 cells assessed as suppression of cell proliferation
[3] = Inhibition of EGFR Del ex19 mutant in human HCC827 cells assessed as suppression of cell proliferation
[4] = Inhibition of wild type EGFR in human NCI-H1666 cells assessed as suppression of cell proliferation
[5] = Inhibition of EGFR Del ex19/T790M double mutant in human PC9 cells assessed as suppression of cell proliferation

IC50 [1]: 8 nM
IC50 [2]: 8 nM
IC50 [3]: 8 nM
IC50 [4]: 230 nM
IC50 [5]: 8 nM
SMILES: C=CC(=O)N1CC[C@@H](Oc2nc(Nc3ccc(N4CCC(N5CCN(C)CC5)CC4)cc3)c(C(N)=O)nc2CC)C1 [US9085540, 54]

— BindingDB's records for doi:10.1016/j.bmcl.2016.02.067 (Pfizer, 2016)
